What all share (assay type): physicochemical
Series [1] in a line: Stability of compound in TRIS buffer at pH 8 assessed as compound conversion in presence of DTT measured for 2 to 90 mins by LC-MS analysis. As to conditions: time 2-90 min.
Series [2] in a line: Stability of compound in TRIS buffer at pH 8 assessed as compound conversion in presence of DTT measured after 15 mins by LC-MS analysis. As to conditions: TRIS buffer with DTT, read-out: Drug metabolism.
A short description of series [3]: Stability of compound in TRIS buffer at pH 8 assessed as compound conversion in presence of DTT measured after 90 mins by LC-MS analysis. The settings on record: TRIS buffer with DTT, read-out: Drug metabolism.

The record followed here is ChEMBL document CHEMBL5247681, “Covalent S-Adenosylhomocysteine-Based DNA Methyltransferase 2 Inhibitors with a New Type of Aryl Warhead” (ACS Med Chem Lett, 2023).

The structures appear in SMILES notation.

With `Nc1ncnc2c1ncn2[C@@H]1O[C@H](CN(CC[C@H](N)C(=O)O)S(=O)(=O)c2ccc(Br)c([N+](=O)[O-])c2)[C@@H](O)[C@H]1O`, in series [1], the Stability entry was “Unstable”. The degraded at 0.25 h in series [2] worked out at 60%. For the same compound, the degraded at 1.5 h in series [3] is 100%.

Consider `Nc1ncnc2c1ncn2[C@@H]1O[C@H](CN(CC[C@H](N)C(=O)O)S(=O)(=O)c2ccc(F)c([N+](=O)[O-])c2)[C@@H](O)[C@H]1O`, for which the Stability entry in series [1] is on record as “Unstable”.

As for `Nc1ncnc2c1ncn2[C@@H]1O[C@H](CN(CC[C@H](N)C(=O)O)S(=O)(=O)c2ccc(Cl)c([N+](=O)[O-])c2)[C@@H](O)[C@H]1O`, the Stability result in series [1] was “Unstable”. In addition, the degraded at 0.25 h in series [2] stood at 60%. Moreover, in series [3], the degraded at 1.5 h was determined as 100%.
